From patent US10209240B2, “Predicting human developmental toxicity of pharmaceuticals using human stem-like cells and metabolomic ratios” (STEMINA BIOMARKER DISCOVERY, INC., priority 2012, dated 2019)
Like-named read-outs stand apart in the source and are kept apart here.

Assays:
[1] = system: Humans; details: cited from earlier work; for Humans (known human developmental toxicity): training and test set; for Known Effect: validation and test set treatments of Example 2
[2] = system: mouse embryonic stem cell; details: training and test set; weak/moderate and strong teratogens both labeled teratogen; cited from earlier work
[3] = system: hES cells; test: ADMA/cystine ratio simplified predictive model in hES cell spent media; type: cell-based, human; details: single dose per treatment; ratios less than 0.9 indicate teratogenicity
From the text: (§1) This simplified model is based on a ratio of the reference treatment (DMSO) normalized values of ADMA and cystine.
The X-axis is the reference normalized ratio of ADMA/Cystine. The y-axis is the training set of pharmaceuticals. Grey color with triangle glyphs represents teratogens and black color with circle glyphs represents non-teratogens. Each glyph point represents the media value of an independent experimental block (6 reps per block). The crosshair glyphs mark the sample medians. In FIG. 9, grey vertical line is threshold of teratogenicity, grey horizontal lines are the median absolute deviations, and black vertical line designates 1.0. The arrows at the bottom indicate the values used for differentiation of teratogens and nonteratogens, utilizing a cut off of 0.9 (grey line).

[4] = system: zebrafish; details: training and test set; weak/moderate and strong teratogens both labeled teratogen; cited from earlier work
[5] = therapeutic peak plasma in vivo concentration, human, cited from earlier work
[6] = summarized from TERIS and Briggs et al. 2011, cited from earlier work
[7] = system: Rabbit; details: training and test set; cited from earlier work
[8] = system: WA09 hES cells
[9] = system: WA09 hES cells; test: Phase 2 targeted biomarker assay, ornithine/cystine ratio, 9-point dose response
How it was run: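 WA09 hES cells (≤ passage 40), plated as single cells at 100,000/well on Matrigel in mTeSR1 with 10 μM Y27632, dosed 24 h later with nine 3-fold dilutions, 0.04–300 μM, 0.1% DMSO, for 72 h. Final-24 h spent medium, spiked with 13C6-arginine and filtered (<10 kDa), analysed by LC-HRMS; viability by CellTiter-Fluor.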

[10] = system: Rodent; details: training and test set; cited from earlier work
[11] = system: hES cells; test: devTOX computational model predictions (Version 2.0, Version 2.1) from hES cell metabolomics; type: cell-based, human; details: single dose per treatment (Dose column)
From the text: The selection process weighted the predictive capacity of a feature, overall intensity, and peak shape to identify very well behaved features/metabolites that could be measured by targeted LC-MS or even by other detection systems.
as §1

[12] = system: rat whole embryo; details: training and test set; weak/moderate and strong teratogens both labeled teratogen; cited from earlier work
[13] = test set, interpolated concentration where cell viability dose response curve crosses teratogenicity threshold 0.88, 72 hours
[14] = test set, teratogenicity potential scored against therapeutic Cmax
[15] = training and test set, o/c ratio scored against therapeutic Cmax
[16] = training set, teratogenicity potential scored against therapeutic Cmax
[17] = training set, interpolated concentration where o/c ratio dose response curve crosses teratogenicity threshold 0.88, 72 hours

Row | Compound | Humans (known human developmental toxicity) [1] | Known Effect [1] | mEST prediction [2] | Model Predictions ADMA/Cystine [3] | ZET prediction [4] | Cmax ([5]; training set) | Preclinical in vivo and known human developmental effects ([6]; training set compounds) | Rabbit prediction [7] | Viability Prediction [8] | Teratogenicity Potential (μM) Cell Viability ([8]; human, 72 h) | O/C Ratio Prediction [9] | Targeted Biomarker Assay prediction [9] | Teratogenicity Potential (μM) O/C Ratio ([9]; human, 72 h) | Rodent prediction [10] | Model Predictions Version 2.0 [11] | Model Predictions Version 2.1 [11] | WEC prediction [12] | Cmax ([5]; test set) | Preclinical in vivo and known human developmental effects ([6]; test set compounds) | also measured
1 | O=c1[nH]cc(F)c(=O)[nH]1 [5-Fluorouracil] | TER | Ter | TER^b,i | Ter | TER^c | 4.25 µM | Craniofacial, central | TER | TER | 2 µM | TER | TER | 3 µM | TER | Ter | Ter | TER^f,k |  |  | Cytotoxicity at the Cmax exposure level ([8]; human, 72 h): greater than 30%; Change in the o/c ratio, also relative to cytotoxicity [9]: change in o/c ratio that is directly correlated with a decrease in cell viability
2 | CC(=O)Nc1ccc(O)cc1 [Acetaminophen] | NON |  |  |  | NON^e |  |  |  | NON | >300 µM | NON | NON | >300 µM | NON |  |  | TER^k | 116 µM | None | 
3 | CC(C)(S)[C@@H](N)C(=O)O [D-Penicillamine] | TER |  | NON^m |  | NON^d |  |  |  | NON | >300 µM | TER | TER | <0.04 µM | TER |  |  | NON^f | 13.4 µM | Skeletal | Classification by o/c ratio in the targeted biomarker assay [9]: correctly classify
4 | NNC(=O)c1ccncc1 [Isoniazid] | NON | Non | NON^b,i | Non | NON^c,n | 51 µM | None | NON | NON | >300 µM | NON | NON | 165.4 µM | NON | Ter | Ter | TER^f,j |  |  | 
5 | CCOC(=O)N1CCC(=C2c3ccc(Cl)cc3CCc3cccnc32)CC1 [Loratadine] |  |  | NON^i |  | TER^d |  |  | NON |  |  |  |  |  | NON |  |  | NON^f,j |  | None | Teratogenicity Potential (μM) Cell Viability [8, 13]: 76.3 µM; Viability Prediction [8, 14]: NON; Targeted Biomarker Assay prediction [9, 15]: NON
6 | CN(Cc1cnc2nc(N)nc(N)c2n1)c1ccc(C(=O)N[C@@H](CCC(=O)O)C(=O)O)cc1 [Methotrexate] | TER | Ter | TER^b,i | Ter | TER^d | 0.2 µM | Craniofacial, limb, skeletal, | TER | TER | 0.05 µM | TER | TER | 0.05 µM | TER | Ter | Ter | TER^f |  |  | Cytotoxicity at the Cmax exposure level ([8]; human, 72 h): greater than 30%
7 | CCN(CC)CCNC(=O)c1cc(Cl)c(N)cc1OC [Metoclopramide] | NON | Non | TER^i,m | Non | NON^d |  |  | NON | NON | >300 µM | NON | NON | 190.8 µM | NON | Ter | Non | NON^f,j | 0.15 µM | None | 
8 | CC1(C)S[C@@H]2[C@H](NC(=O)Cc3ccccc3)C(=O)N2[C@H]1C(=O)O [Penicillin G] | NON | Non | NON^b,i | Non | NON^c,e,n | 135 µM | None | NON |  |  |  |  |  | NON | Non | Non | NON^f,j |  |  | Teratogenicity Potential (μM) Cell Viability ([8]; training set, interpolated concentration where cell viability dose response curve crosses teratogenicity threshold 0.88, 72 hours): >300 µM; Viability Prediction [8, 16]: NON; Targeted Biomarker Assay prediction [9, 15]: NON; Teratogenicity Potential (μM) O/C Ratio [9, 17]: >300 µM; O/C Ratio Prediction [9, 16]: NON
9 | S=P(N1CC1)(N1CC1)N1CC1 [ThioTEPA] | TER |  |  |  | TER^v |  |  | TER |  |  | TER | TER | 0.04 µM | TER |  |  |  | 7 µM | Skeletal, embryo toxicity^c | Teratogenicity Potential (μM) Cell Viability [8, 13]: 0.5 µM; Viability Prediction [8, 14]: TER
10 | Cytosine Arabinoside |  | Ter | TER^i | Ter | TER^n | 0.6 µM | Limb |  |  |  |  |  |  | TER | Ter | Ter | TER^j |  |  | Teratogenicity Potential (μM) Cell Viability [8]: 0.1 µM; Teratogenicity Potential (μM) O/C Ratio [9, 17]: 0.04 µM
